As usually defined, the LD50 is the dose at which mortality reaches 50%. In general, ED50 refers to the dose that gives a 50% effect, or the effect in half of the subjects. The solubility is the concentration that dissolves in the medium under given conditions.

Data set [1] can be described thus: Acute toxicity (LD50, method of MILLER and TAINTER) in the conventional mouse. The settings on record: in vivo, mouse about 20 g. As to the method: The toxicology study was carried out on the conventional mouse weighing about 20 g.
The substances were administered orally and intraperitoneally. The LD50 is calculated by the method of MILLER and TAINTER (Proc. Soc. Exper. Biol. Med. 1944, 57, 261).

Data set [2] is described as follows: Solubility characteristics.
Another data set has as its system phenyl benzoquinone. As to the kind of experiment: Analgesic activity by the technique of SIEGMUND et al. (phenyl benzoquinone). The settings on record: read-out: ED50, analgesic activity. The data set is classed as in vivo. How it is done:
The compounds are administered orally 30 minutes before the injection of the phenyl benzoquinone solution.

In a further data set the test system is rabbit tooth. As to the kind of experiment: Analgesic activity: electrical stimulation of rabbit tooth (CHEYMOL). The class given is in vivo. The note with it: for time of maximum activity after administration: 100 mg/kg, administered orally; for analgesic activity compared with the control product (glaphenine): electrical stimulation of rabbit tooth. The text has this: (b) Electrical stimulation of rabbit tooth in accordance with CHEYMOL - Therapie 1959, XIV, p. 350 to 360.

The next data set has as its system rats. The class given is in vivo, rat. As to the method:
The ulceration index was determined in rats subjected to constraint for 7 hours.
The vehicle is a 4% aqueous solution of Tween 80 (TM - surface active agent).
The ulcerogenic index is calculated in accordance with the criteria established by […] et al. (Arch. Int. Pharmacodyn; 1971, 190, 6-13).

Data set [3] has as its system mice. As to the kind of experiment: Potentialization of anesthesia induced by chloral hydrate in mice. The class given is in vivo, mouse. The settings on record: 350 mg/kg chloral hydrate i.p., compound 100 mg/kg orally 30 minutes in advance.
In data set [4] the test system is mice. As to the kind of experiment: Falling of mice placed on a turning horizontal bar (central properties). The data set is classed as in vivo, mouse. The note with it: bar of 4 cm diameter turning at 8 rpm.
[5] abbreviates: ip, intraperitoneal, read-out: LD50, intraperitoneally.
Setting [6] is: oral, 30 minutes before injection of phenyl benzoquinone solution.
The mark [7] stands for this setting: rats, oral, dose 100 (unit not given), N = 10, constraint for 7 hours.

Converted amounts (≈) assume the structure as drawn. Like-named read-outs stand apart in the source and are kept apart here.

On to `O=C(NCCOC(=O)c1ccccc1Nc1ccnc2cc(C(F)(F)F)ccc12)c1cccnc1` [F 1636, β-nicotinamido-ethyl-N(7-trifluoromethyl-4-quinolyl)-anthranilate], for which the LD50 was above 1000 mg/kg in data set [1] (setting [5]) and 3200 ± 500 mg/kg in data set [1] (oral, read-out: LD50, orally). Further, the “solubility in dimethyl formamide” value in data set [2] (dimethyl formamide) was determined as 8%. In addition, in the data set with phenyl benzoquinone (setting [6]), the ED50 is 15 mg/kg. For the same compound, the “time of maximum activity after administration” value with rabbit tooth is “about 60 minutes”. In addition, the “analgesic activity compared with the control product (glaphenine)” value in the data set with rabbit tooth was “better activity than the control product (glaphenine)”. Also, the Ulceration index with rats (setting [7]) is reported as 4.2.

In data set [2] (alcohol), `Nc1ccccc1C(=O)OCCNC(=O)c1cccnc1` [β-nicotinamido-ethyl anthranilate] had a solubility in alcohol of 2.5%. In addition, in data set [2] (dimethyl acetamide), the “solubility in dimethyl acetamide” value turned out to be 100%. In data set [2] (water), the solubility in water result was “insoluble”.

On to `CC(=O)Oc1ccccc1C(=O)O` [Aspirin, reference compound], for which the 50% effective dose (ED50) in the data set with phenyl benzoquinone (po) worked out at 100 mg/kg. For the same compound, in the data set with rats (rat, in vivo, po), the Ulceration index worked out at 13.1.

For `O=C(NCCOC(=O)c1ccccc1Nc1ccnc2cc(Cl)ccc12)c1cccnc1` [F 1531, β-nicotinamido-ethyl-N(7-chloro 4-quinolyl)-anthranilate], the LD50 in data set [1] (setting [5]) is above 500 mg/kg; in data set [1] (oral, read-out: LD50, orally), 2800 ± 500 mg/kg. The “effect on anesthesia induced by chloral hydrate” value with mice [3] is recorded as “neither potentialization nor decrease in the anesthesia”. The solubility in data set [2] (1 n hcl) was found to be 200 mg/mL (≈ 448 mM). Moreover, the median effective dose (ED50) in the data set with phenyl benzoquinone (setting [6]) was 28 mg/kg. In the data set on rabbit tooth, the “time of maximum activity after administration” value was “about 60 minutes”. Moreover, in the data set with rabbit tooth, the “analgesic activity compared with the control product (glaphenine)” value is “better activity than the control product (glaphenine)”. In the data set with mice [4], the “doses resulting in the falling of mice from turning horizontal bar” value is recorded as “identical with the lethal doses”. The compound further displayed a Ulceration index in the data set on rats (setting [7]) of 5.3.

Turning to `O=C(OCC(O)CO)c1ccccc1Nc1ccnc2cc(Cl)ccc12` (stereo not shown) [Glaphenine, reference compound], the LD50 was around 500 mg/kg in data set [1] (setting [5]) and 1500 ± 500 mg/kg in data set [1] (oral, read-out: LD50, orally). Further, the ED50 in the data set on phenyl benzoquinone (setting [6]) stood at 36 mg/kg. This compound displayed a Ulceration index with rats (setting [7]) of 8.8.

These data come from US4122181A, “Analgesic (3-micotinamido-N(quinolyl) anthranilates and method of use” (Pierre Fabre S.A., priority 1975, dated 1978).
